Measured values taken from patent publication US5360794A, “Disubstituted and deoxy disubstituted derivatives of α-D-mannofuranosides and β-L-gulofuranosides having anti-inflammatory and anti-proliferative activity” (Medicarb Inc., priority 1992, dated 1994).

Experiments:
[1] = tested on: mouse spleen cells (T-lymphocyte response to Con-A); assay: Concanavalin A assay (mouse spleen cell mitogen induced blastogenesis); format: cell-based; conditions: estimated IC50, Con-A 1.25 μg/ml, 3 days, MTT
Text: iii Concanavalin A assay (the mouse spleen cell mitogen induced blastogenesis).
The MLR assay measures the effects of a study compound on the activation and antigen presentation of T-lymphocytes, therefore determining immunomodulatory properties. The mouse spleen cell mitogen-induced blastogenesis and the BUD-8 human fibroblast proliferation assays measure the effects of the compounds of the present invention on cellular proliferation of cells involved in the pathogenesis of autoimmune diseases. These two assays are appropriate as screens to ascertain anti-inflammatory and/or autoimmune beneficial activity and are art accepted for such purposes.
It is known that the induction and maintenance of most inflammatory diseases are typically due to the unrestricted activity of T-lymphocytes. Therefore, it is advantageous to identify compounds which are modulators of T-lymphocyte activity for eventual use in the regulation of inflammatory diseases, including acquired immune deficiency syndrome, psoriasis, systemic lupus, erythromatosus, and rheumatoid arthritis.
A simple method is used to screen compounds for their ability to modulate T-lymphocyte activity which comprises assessing the capacity of the compounds to alter the activation of murine spleen cells in response to T-lymphocyte mitogen activators, such as Conconavalin-A (Con-A). The method used to measure the effects of the compounds of the present invention on the blastogenic response of spleen cells to the T-lymphocyte mitogen (Con-A) is as follows:
The response of a mouse spleen cells to the T cell mitogen Con-A is a classical assay. In this assay, mice were euthanized by cervical dislocation and their spleens removed surgically. A single cell suspension of the spleens was prepared in culture medium (RPMI-1640 with hepes, supplemented with 10% calf serum, 2 mM glutamine, 500 units penicillin/streptomycin, and 4×10^-5 M 2-mercaptoethanol) using a Teflon pestle. The cells were centrifuged at 1500 RPM and the pellets resuspended in ACT (0.15M Tris, 0.14M Ammonium chloride, pH 7.2) in orde to lyse the red blood cells. After a five minutes incubation in a 37° C. waterbath, the cells were washed and resuspended in culture medium. The splenic lymphocytes were counted using an electronic Coulter Counter and diluted to 5.0×10^6 cells/ml.
The test articles were diluted in culture medium to the appropriate concentrations. 100 μl aliquots were distributed to triplicate wells in a 96-well microtiter plate. 50 μl of lymphocytes (2.5×10^5 cells) were added to each well. Control wells with vehicle and wells with media were also run. Plates were incubated for one hour at 37° C. 50 μl of Con-A ([…]) were then added to the wells to result in a final concentration of 1.25 μg/ml. After incubation at 37° C. with 5% carbon dioxide for 3 days, proliferation was measured by adding 20 μl of MTT (10 mg/mlin PBS) [3-(4,5-dimethyl-thiazol-2-yl)-2,5-diphenyl tetrazolium bromide] to each well. Plates were incubated for 4 hours at 37° C., after which 180 μl of 10% SDS in PBS were added. After an overnight incubation, the optical density (OD) of each well was read using a Molecular Devices microplate reader at 570-650 nm.
Duplicate cultures without Con-A were also set up. After 3 days of incubation, supernatants were assayed for lactate dehydrogenase activity to determine the viability of the cells, which is an indication of the toxicity of the test article on the splenic lymphocytes. 0.1 ml of supernatant was mixed with 0.1 ml of the LDH substrate mixture which contains 5.4×10^-2 M L(+) lactate, 6.6×10^-4 M 2-p-iodophenyl-3-p-nitrophenyl tetrazolium chloride, 2.8×10^-4 M phenazine methosulfate, 1.3×10^-3 M NAD, and 0.2M Tris buffer, pH 8.2. Plates were read immediately for 5 minutes at 490 nm using a Molecular Devices microplate reader.
The mean for each test article treated group was determined and compared to the mean of the control group. […]

[2] = tested on: various tumor cell lines (leukemia, melanoma, lung cancer, colon cancer, renal cancer, ovarian cancer, brain cancer); assay: Tumor cell line growth inhibition (average over lines of seven cancer types); format: cell-based; conditions: Log 10 values; average GI50 over tumor cell lines from seven cancer types; read-out: GI (μM) Log 10 values (Average GI50) (converted)
Protocol: The compounds of the present invention were also tested against various tumor cell lines, derived from seven cancer types. These include leukemia, melanoma, lung cancer, colon cancer, renal cancer, ovarian cancer, and brain cancer. Most of the compounds have shown significant activity in various screens, particularly against colon cancer and melanoma.

[3] = Mus musculus, T-lymphocyte, 72 h

GI50 [2]	Molecule	IC50 [1, 3]	IC50 [1]
9.12 µM	CCCCCCCCCOCCCO[C@H]1O[C@H]([C@H](O)CN2CCCC2)[C@@H]2OC(C)(C)O[C@H]12 [Compound 3, n-Nonyloxypropyl 2,3-O-(1-methylethylidene)-6-deoxy-pyrrolidinyl-α-D-mannofuranoside]	3.3 µM	
	CCCCCCCCCOCCCO[C@H]1O[C@H]([C@H](O)CN2CCCCC2)[C@@H]2OC(C)(C)O[C@H]12 [Compound 4, n-Nonyloxypropyl 2,3-O-(1-methylethylidene)-6-deoxy-6-piperidinyl-α-D-mannofuranoside]	2.7 µM	
	CCCCCCCCCOCCCO[C@H]1O[C@H]([C@H](O)CN2CCOCC2)[C@@H]2OC(C)(C)O[C@H]12 [Compound 5, n-Nonyloxypropyl 2,3-O-(1-methylethylidene)-6-deoxy-6-morpholinyl-α-D-mannofuranoside]	17 µM	
	CCCCCCCCCOCCCO[C@H]1O[C@H]([C@H](O)CN2CCCCCC2)[C@@H]2OC(C)(C)O[C@H]12 [Compound 6, n-Nonyloxypropyl 2,3-O-(1-methylethylidene)-6-deoxy-6-hexamethyleneimino-α-D-mannofuranoside]	3.2 µM	
2.29 µM	CCCCCCCCCOCCCO[C@H]1O[C@H]([C@H](O)CNCCCCCCC)[C@@H]2OC(C)(C)O[C@H]12 [Compound 8, n-Nonyloxypropyl 2,3-(1-methylethylidene)-6-deoxy-6-aminoheptyl-α-D-mannofuranoside]	17 µM	
11.5 µM	CCCCCCCCCOCCCO[C@H]1O[C@H]([C@@H](C)OCCCN(C)C)[C@@H]2OC(C)(C)O[C@H]12 [Compound 10, n-Nonyloxypropyl 2,3-O-(1-methylethylidene)-6-deoxy-5-O-(N,N-dimethylaminopropyl)-α-D-mannofuranoside]	3 µM	
	CCCCCCCCCOCCCO[C@H]1O[C@H]([C@@H](C)OCCN2CCCC2)[C@@H]2OC(C)(C)O[C@H]12 [Compound 12, n-Nonyloxypropyl 2,3-O-(1-methylethylidene)-6-deoxy-5-O-(N'-ethylpyrrolidinyl)-α-D-mannofuranoside]	3.2 µM	
	CCCCCCCCCOCCCO[C@H]1O[C@H]([C@H](C)N2CCCC2)[C@@H]2OC(C)(C)O[C@H]12 [Compound 15, n-Nonyloxypropyl 5,6-dideoxy-2,3-O-(1-methylethylidene)-5-pyrrolidinyl-β-L-gulofuranoside]	2.8 µM	
87.1 µM	CC1(C)O[C@@H]2[C@H](O1)[C@@H](OCCCc1ccccc1)O[C@@H]2[C@H](O)CN1CCCC1 [Compound 20, Phenylpropyl 6-deoxy 2,3-O-(1-methylethylidene)-6-pyrrolidinyl-α-D-mannofuranoside]	59 µM	
7.41 µM	CCCCCCCNC[C@@H](O)[C@H]1O[C@H](OCCCc2ccccc2)[C@H]2OC(C)(C)O[C@H]21 [Compound 21, Phenylpropyl 6-deoxy 2,3-O-(1-methylethylidene)-6-heptylamino-α-D-mannofuranoside]	7 µM	
	CC1(C)O[C@@H]2[C@H](O1)[C@@H](OCCCc1ccccc1)O[C@@H]2[C@H](O)CNCCCN1CCCC1 [Compound 22, Phenylpropyl 6-deoxy 2,3-O-(1-methylethylidene)-6-aminopropylpyrrolidinyl-α-D-mannofuranoside]	2.5 µM	
95.5 µM	C[C@@H]([C@H]1O[C@H](OCCCc2ccccc2)[C@H]2OC(C)(C)O[C@H]21)N1CCCC1 [Compound 24, Phenylpropyl 5,6-dideoxy 2,3-O-(1-methylethylidene)-5-pyrrolidinyl-β-L-gulofuranoside]	28 µM	
58.9 µM	C[C@@H](OCCCN(C)C)[C@H]1O[C@H](OCCCc2ccccc2)[C@H]2OC(C)(C)O[C@H]21 [Compound 26, Phenylpropyl 6-deoxy 2,3-O-(1-methylethylidene)-5-O-3'-(N'N'-dimethylamino-n-propyl)-α-D-mannofuranoside]	18 µM	
	C[C@@H](OCCN1CCCC1)[C@H]1O[C@H](OCCCc2ccccc2)[C@H]2OC(C)(C)O[C@H]21 [Compound 27, Phenylpropyl 6-deoxy 2,3-O-(1-methylethylidene)-5-O-(N'-ethylpyrrolidinyl)-α-D-mannofuranoside]	< 3 µM	
	CC1(C)O[C@@H]2[C@H](O1)[C@@H](OCCCCN1CCCC1)O[C@@H]2[C@H](O)CO [Compound 29, 4'-(1-Pyrrolidinyl)butyl 2,3-O-(1-methylethylidene)-α-D-mannofuranoside]	49 µM	
	n-Nonyloxypropyl 2,3-O-(1-methylethylidene)-6-deoxy-6-aminothylpyrrolidinyl-α-D-mannofuranoside [Compound 7]		2.9 µM
